Measured values from paper PMC12040169 (PLOS Biology, 2025).

Assay: in vitro
Details: human, hela cells, % viability

SMILES	viability at 28.5 h, 10 µM [%]	viability at 28.5 h, 10 µM (bulk resorufin, single well) [%]
C/C(=N\NC(=O)Cc1ccc([N+](=O)[O-])cc1[N+](=O)[O-])c1ccccc1O [CBK261175]	88.8	
O=C(O)c1ccc2c(c1)C(=O)N(c1cccc(/C=C/C(=O)c3cccc(N4C(=O)c5ccc(C(=O)O)cc5C4=O)c3)c1)C2=O [CBK261178]	89.8	
O=C(O)c1ccc(Oc2cccc([N+](=O)[O-])c2)cc1C(=O)O [CBK261179]	110	
Nc1cccc(Oc2ccc(C(=O)O)c(C(=O)O)c2)c1 [CBK261180]	89.4	
O=C(O)c1cc(NC(=O)c2ccc(Oc3ccc([N+](=O)[O-])cc3)cc2)cc(C(=O)O)c1 [CBK261188]	88.6	
O=C(O)c1ccc(S(=O)(=O)c2ccc3c(c2)C(=O)N(c2nccs2)C3=O)cc1 [CBK261189]	90.1	
O=C1c2ccc(Oc3cccc([N+](=O)[O-])c3)cc2C(=O)N1c1ccccn1 [CBK261190]	95.8	
O=C(O)c1ccc2c(c1)C(=O)N(c1ccc(-c3ccnc(-c4ccc(N5C(=O)c6ccc(C(=O)O)cc6C5=O)cc4)n3)cc1)C2=O [CBK261192]	104	
O=C(O)c1cc(C(=O)O)cc(N2C(=O)C3C4C=CC(C4)C3C2=O)c1 (centres unmarked) [CBK261193]	97.5	
O=C(c1ccc2c(c1)C(=O)N(c1ccncc1)C2=O)c1ccc2c(c1)C(=O)N(c1ccncc1)C2=O [CBK261194]	88.5	
O=C(O)c1ccc2c(c1)C(=O)N(c1ccc(C3(c4ccc(N5C(=O)c6ccc(C(=O)O)cc6C5=O)cc4)c4ccccc4-c4ccccc43)cc1)C2=O [CBK261195]	92.2	
O=C(Nc1ccc(NC(=O)c2cccc([N+](=O)[O-])c2)c(Cl)c1)c1cccc([N+](=O)[O-])c1 [CBK261196]		105
O=C(Nc1ccccc1)c1ccc2c(c1)C(=O)N(c1cccc(N3C(=O)c4ccc(C(=O)Nc5ccccc5)cc4C3=O)n1)C2=O [CBK261197]	91.5	
Cc1ccc(NC(=O)c2ccc3c(c2)C(=O)N(c2cccc(N4C(=O)c5ccc(C(=O)Nc6ccc(C)cc6)cc5C4=O)n2)C3=O)cc1 [CBK261198]	90.8	
O=C(O)c1ccc(Oc2ccc3c(c2)C(=O)N(c2nccs2)C3=O)cc1 [CBK261200]	101	
O=C(Nc1cccc(I)c1)c1ccc(Oc2ccc(C(=O)Nc3cccc(I)c3)cc2)cc1 [CBK261201]	92.6	
O=C(CSCc1cccc(Br)c1)Nc1cccc2cccnc12 [CBK261204]	101	
COc1ccc(/C(C)=N/NC(=O)CSCc2cccc(Br)c2)cc1 [CBK261205]	81.4	
Cc1ccc(C(C)C)cc1OCC(=O)N/N=C\c1cc([N+](=O)[O-])ccc1O [CBK261206]	92.6	
NNC(=O)C(Oc1ccccc1)Oc1ccccc1 [CBK261210]	100	
CC(/C=C/c1ccccc1)=N\NC(=O)C(C)Oc1ccc(Br)cc1 (centres unmarked) [CBK261212]	99.7	
NNC(=O)CCc1ccccc1O [CBK261214]	97.2	
Ic1ccc2c3ccc(I)cc3c3[nH]c(-c4ccccc4)nc3c2c1 [CBK261218]	92.9	
O=C(O)c1nc(/N=C/c2ccc(C#Cc3ccccc3)cc2)n[nH]1 [CBK261219]	90.3	
O=C1C(c2ccccc2)=C(c2ccccc2)C(c2ccc(C3=C(c4ccccc4)C(=O)C(c4ccccc4)=C3c3ccccc3)cc2)=C1c1ccccc1 [CBK261220]	87.4	
COc1ccc(/C=N/c2cc(S(=O)(=O)c3ccc(O)c(/N=C/c4ccc(OC)c(O)c4)c3)ccc2O)cc1O [CBK261223]	92.3	
COc1cc(/C=N/c2cccc3c(/N=C/c4ccc(O)c(OC)c4)cccc23)ccc1O [CBK261224]	85.8	

SMILES	viability at 28.5 h, 10 µM [%]	viability at 28.5 h, 10 µM (bulk resorufin, single well) [%]
Cc1[nH]c2ccccc2c1/C=N/c1ccc(/N=C/c2c(C)[nH]c3ccccc23)cc1 [CBK261226]	83.4	
Cc1[nH]c2ccccc2c1/C=N/c1cccc2c(/N=C/c3c(C)[nH]c4ccccc34)cccc12 [CBK261227]	97.6	
CCn1c2ccccc2c2cc(/C=N/c3cc(S(=O)(=O)c4ccc(O)c(/N=C/c5ccc6c(c5)c5ccccc5n6CC)c4)ccc3O)ccc21 [CBK261229]	76.5	
O=C(/C=C\c1cccs1)NC(=S)Nc1ccc([N+](=O)[O-])cc1O [CBK261231]	89.4	
COc1ccc(OCC(=O)N/N=C\c2c(OC)ccc3ccccc23)c(Br)c1 [CBK261235]	86.3	
Cc1cccc(NCC(=O)N/N=C/c2cc3ccccc3nc2Cl)c1 [CBK261236]	90	
O=S1(=O)c2cc(/N=C/c3c(O)ccc4ccccc34)ccc2-c2ccc(/N=C/c3c(O)ccc4ccccc34)cc21 [CBK261240]	84.7	
c1ccc2sc(CCCCc3nc4ccccc4s3)nc2c1 [CBK261248]	92.5	
O=C(O)C1CCCN1S(=O)(=O)c1ccc(Cl)cc1 (centres unmarked) [CBK261249]	88.1	
CC(=O)N/N=C(\C)c1ccc(-n2cnnn2)cc1 [CBK261252]	95.9	
O=C(O)c1ccc(Sc2ccc(S(=O)(=O)c3ccc(C(=O)O)c(C(=O)O)c3)cc2)cc1 [CBK261253]	106	
O=C(O)CSc1ccc(Oc2ccc(SCC(=O)O)cc2)cc1 [CBK261254]	92.6	
O=C(CSc1cccc2c(SCC(=O)c3ccccc3)cccc12)c1ccccc1 [CBK261255]	87.9	
O=C(CCS(=O)(=O)c1cc(Cl)ccc1Cl)OCC(=O)c1ccccc1 [CBK261256]	90.1	
O=C(O)c1cccc(NS(=O)(=O)c2cccc(S(=O)(=O)c3ccc(Cl)c(Cl)c3)c2)c1 [CBK261259]	102	
O=C1CC(N2CCN(c3ccccc3)CC2)C(=O)N1c1cccc2ccccc12 (centres unmarked) [CBK261263]	92.8	
Cc1ccccc1-n1nc(-c2ccc(NC(=O)c3ccccc3)cc2)cc1NC(=O)c1ccccc1 [CBK261264]	82.2	
Nc1cc(N)nc(SCc2ccccc2)n1 [CBK261266]	96.1	
N#Cc1c(N)nc(SCC(=O)O)c(C#N)c1-c1ccc(O)cc1 [CBK261270]	98	
O=C(O)c1cnc(-c2ccccc2)nc1 [CBK261272]	93.2	
Brc1cnc(OCc2ccccc2)nc1OCc1ccccc1 [CBK261274]	101	
Oc1ccccc1-c1cc(-c2ccccc2)c2c(ccc3ncccc32)n1 [CBK261276]	91.9	
CN(C)Cc1ccccc1C(O)c1ccccc1 (centres unmarked) [CBK261277]	94.4	
CCC(C)NC(=O)C(Cc1ccc([N+](=O)[O-])cc1)N1C(=O)c2ccccc2C1=O (centres unmarked) [CBK261278]	105	
O=C(NCc1ccccc1)C(Cc1ccc([N+](=O)[O-])cc1)N1C(=O)c2ccccc2C1=O (centres unmarked) [CBK261279]	95.9	
O=C(COc1ccccc1)N/N=C/c1ccc[nH]1 [CBK261281]	104	
C(=N\c1ccc(Cc2ccc(/N=C/c3ccc[nH]3)cc2)cc1)/c1ccc[nH]1 [CBK261282]	101	

SMILES	viability at 28.5 h, 10 µM [%]	viability at 28.5 h, 10 µM (bulk resorufin, single well) [%]
CNCC(=O)N1c2ccccc2CCc2ccc(NC(=O)OC)cc21 [CBK261285C]	96.5	
O=C1C2C(c3ccc(F)cc3)NC(c3ccc(F)cc3)C1C(c1ccc(F)cc1)NC2c1ccc(F)cc1 (centres unmarked) [CBK261288]	110	
CCOC(=O)Nc1ccc2c(c1)N(C(=O)CCN1CCOCC1)c1ccccc1CC2 [CBK261291C]	103	
O=C(CCc1ccccc1)NNC(=O)C1CC1c1ccccc1 (centres unmarked) [CBK261292]	114	
CCOc1ccc(NC(NC(=O)Nc2ccccc2)C(Cl)(Cl)Cl)cc1 (centres unmarked) [CBK261294]	99.8	
O=C(CCCCCN1C(=O)c2cccc3cccc(c23)C1=O)NO [CBK261295]	55.6	
COc1ccc(C(=O)Nc2ccccc2Nc2cc(-c3ccccc3)nn2-c2ccccc2)cc1 [CBK261296]	88.4	
O=C(Nc1ccccc1Nc1cc(-c2ccccc2)nn1-c1ccccc1)c1ccc(Br)cc1 [CBK261297]	84.7	
Cc1ncc([N+](=O)[O-])n1CCOC(=O)NC(N1CCOCC1)C(Cl)(Cl)Cl (centres unmarked) [CBK261299]	103	
COc1cc(OC)cc(C(=O)Nc2ccc(S(=O)(=O)Nc3nccs3)cc2)c1 [CBK261300]	103	
COc1cc(/C=C2\SC(=S)N(CC(=O)NNC(=O)c3ccccc3O)C2=O)ccc1O [CBK261301]	94	
O=C1NC2(CCCCC2)C(=O)N1CCS(=O)(=O)Oc1ccc(Br)cc1 [CBK261303]	93.5	
O=C(O)CC/C(=N\NC(=O)c1cccnc1)c1ccccc1 [CBK261305]	97.2	
Cc1ccc(S(=O)(=O)NC(CC(=O)O)c2ccccc2)cc1 (centres unmarked) [CBK261307]	105	
CCOC(=O)c1c(CN(C)C)n(-c2ccccc2)c2cc(Br)c(O)cc12 [CBK261309C]	83.4	
COc1ccc(OC)c(C(O)c2coc3ccc(O)c(CN(C)C)c23)c1 (centres unmarked) [CBK261314]	114	
Cc1cccc(OP(=O)(O)Oc2cccc(C)c2C)c1C [CBK261316]		91.7
O=C(O)CCCNS(=O)(=O)c1ccc([N+](=O)[O-])cc1 [CBK261317]	93.1	
NS(=O)(=O)c1ccc(Nc2c(C(=O)O)cc([N+](=O)[O-])cc2[N+](=O)[O-])cc1 [CBK261319]	93	
O=C(CN1C(=O)c2ccccc2C1=O)Nc1cccc2cccnc12 [CBK261320]	91.2	
COC(=O)c1ccc(NC(=O)c2c(Br)c(Br)c(Br)c(Br)c2C(=O)O)cc1 [CBK261321]	100	
O=C(O)CCCC(=O)Nc1ccccc1Br [CBK261322]	102	
COc1ccccc1NC(=O)CCCC(=O)O [CBK261323]	101	
C(=N\Nc1nc(-c2ccccc2)cs1)/c1ccccc1 [CBK261327]	101	
O=C(O)c1cc(C(=O)O)cc(N2C(=O)c3ccc(-c4ccc5c(c4)C(=O)N(c4cc(C(=O)O)cc(C(=O)O)c4)C5=O)cc3C2=O)c1 [CBK261331]	96.6	
O=C(O)C1CC(C(=O)O)C(C(=O)O)CC1C(=O)O (centres unmarked) [CBK261332]	89.4	
